Experimental data published in the supplement of paper PMC10307832.

Legend:
Assay in all cases: relative viability (nuclei count vs DMSO), 5 days (fraction); higher = more cells survive
CUDC-101 = compound: C#Cc1cccc(Nc2ncnc3cc(OC)c(OCCCCCCC(=O)NO)cc23)c1 [CUDC-101]
Procedure, shortened: (§1)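 Five library-drug doses, separated by factors of √10, were pinned into 1536-well plates holding lung cancer cell lines after an overnight stay at 37 °C. Cells were fixed, permeabilised and Hoechst-stained in one step after 5 days without medium change, then imaged at 4×. Viability compares treated-well with vehicle-well nuclei, counted in MetaXpress, as a median across plates. Passing plates had control CV below 25% and at least one doubling.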

NVP-TAE684 = compound: COc1cc(N2CCC(N3CCN(C)CC3)CC2)ccc1Nc1ncc(Cl)c(Nc2ccccc2S(=O)(=O)C(C)C)n1 [NVP-TAE684]
Procedure, shortened: as §1

Vandetanib = compound: COc1cc2/c(=N/c3ccc(Br)cc3F)nc[nH]c2cc1OCC1CCN(C)CC1 [Vandetanib]
Procedure, shortened: as §1

Cell Line	relative viability (CUDC-101; 0.01 µM)	relative viability (CUDC-101; 0.03162 µM)	relative viability (CUDC-101; 0.1 µM)	relative viability (CUDC-101; 0.3162 µM)	relative viability (CUDC-101; 1 µM)	relative viability (NVP-TAE684; 0.2 µM)	relative viability (NVP-TAE684; 0.6325 µM)	relative viability (NVP-TAE684; 2 µM)	relative viability (Vandetanib; 0.02 µM)	relative viability (Vandetanib; 0.06325 µM)	relative viability (Vandetanib; 0.2 µM)	relative viability (Vandetanib; 0.6325 µM)	relative viability (Vandetanib; 2 µM)
EMC-BAC-2	1.05	0.966	1.13	0.9	0.616	0.966	0.894	0.679	1.03	0.981	0.929	1.02	0.918
NCI-H1437	0.994	0.985	1.01	1.06	0.981	–	0.957	0.758	0.937	0.968	0.955	1.03	0.981
NCI-H1944	0.981	0.884	0.899	0.817	0.574	1.08	0.939	0.94	0.909	0.92	0.902	0.813	0.965
NCI-H838	0.988	0.922	0.992	1.02	0.871	–	0.792	0.545	0.938	0.902	0.973	0.94	0.957
HCC-827	1.08	0.709	0.247	0.198	0.192	1.09	1.02	1.04	1.04	1.02	1.01	0.31	0.186
NCI-H2342	1.06	0.931	0.973	0.996	0.923	0.917	0.849	0.647	1	0.964	0.953	0.95	0.949
LOU-NH91	1.06	0.846	0.932	0.872	0.646	0.966	0.833	0.703	0.986	0.869	0.825	0.823	0.859
NCI-H3122	0.942	0.995	1.03	1.01	0.994	0.236	0.164	0.126	0.928	1	1.02	0.984	0.978
NCI-H1563	0.968	0.869	1.06	0.917	0.893	0.955	0.95	–	0.973	1.07	0.989	1.03	0.94
NCI-H1734	1.01	0.942	1.05	0.95	0.703	0.983	0.901	0.705	0.954	0.93	1.03	0.894	1.01
EPLC-272H	1.04	0.9	0.838	0.79	0.418	0.9	0.667	0.688	0.941	0.834	0.975	0.941	0.923
RERF-LC-KJ	1	1.02	1.01	0.98	0.801	0.971	0.969	0.79	0.962	0.954	0.963	0.927	0.815
EBC-1	1	0.89	0.975	0.785	0.582	0.836	1.03	0.744	0.93	0.959	1.07	1.09	1.03
HARA	1.01	0.942	0.774	0.861	0.39	–	0.838	0.667	1.13	0.939	0.914	0.899	0.942
NCI-H1651	1.05	0.984	0.991	1.08	0.932	0.946	0.966	0.868	0.943	0.961	0.979	0.96	0.893
NCI-H2405	1.06	0.984	1.09	1.1	0.951	1.06	0.869	0.574	0.993	0.785	1.1	1.06	0.689
NCI-H596	0.97	1.01	1.04	1.05	0.88	0.959	1.03	–	0.937	0.876	0.954	0.993	1
NCI-H2009	1	0.999	1.04	1.04	0.914	0.993	0.936	0.762	0.963	0.972	1.01	1.03	1.05
NCI-H2170	0.974	0.987	1.06	1.01	0.9	0.995	0.969	1.04	0.944	0.917	1	0.97	0.989
NCI-H1648	1.15	0.59	0.758	0.741	0.376	0.715	0.713	0.363	0.862	0.824	0.745	0.915	0.561
NCI-H1623	1.11	0.858	0.82	0.813	0.552	0.945	0.868	0.852	0.891	0.905	0.949	0.938	0.825
LU99A	1.07	0.877	0.808	0.9	0.58	0.998	0.942	0.616	0.839	0.846	0.92	0.895	0.951
PC-3 [JPC-3]	1.05	0.972	0.522	0.542	0.431	1.08	0.945	0.984	1	0.922	0.983	0.653	0.507
A549	1.04	0.967	1	1.04	0.799	1.1	0.951	0.585	1	0.894	0.913	0.907	0.922
HCC-44	0.858	1.03	1.02	0.951	0.968	1.09	0.969	0.749	0.939	0.965	1.02	0.998	0.966
H3255	1	0.912	0.454	0.658	0.273	0.947	0.859	0.754	0.998	0.934	0.845	0.573	0.355

Cell Line	relative viability (CUDC-101; 0.01 µM)	relative viability (CUDC-101; 0.03162 µM)	relative viability (CUDC-101; 0.1 µM)	relative viability (CUDC-101; 0.3162 µM)	relative viability (CUDC-101; 1 µM)	relative viability (NVP-TAE684; 0.2 µM)	relative viability (NVP-TAE684; 0.6325 µM)	relative viability (NVP-TAE684; 2 µM)	relative viability (Vandetanib; 0.02 µM)	relative viability (Vandetanib; 0.06325 µM)	relative viability (Vandetanib; 0.2 µM)	relative viability (Vandetanib; 0.6325 µM)	relative viability (Vandetanib; 2 µM)
LXF-289	1.01	1.03	0.997	0.971	0.908	1.02	1.01	0.907	1.01	1.02	1.03	0.985	0.968
PC-14	1.12	0.837	0.602	0.537	0.273	0.998	1.01	0.921	0.987	0.833	0.574	0.369	0.223
NCI-H661	1.01	0.907	1.02	0.945	0.637	0.99	0.972	0.95	0.943	0.989	0.967	1.05	0.901
EKVX	1.02	1.04	0.883	1.1	0.772	0.862	0.873	0.719	1	0.928	0.925	0.773	0.608
Calu-6	1.03	0.998	0.979	0.993	0.857	0.937	0.992	0.758	0.958	0.946	1.02	0.988	0.95
NCI-H1703	0.997	0.743	1.1	1.19	0.904	1.07	0.845	–	1.02	0.673	0.963	0.775	0.537
NCI-H322M	0.889	0.846	0.768	0.739	0.474	1.02	0.795	0.636	0.895	0.879	0.872	0.797	0.538
SK-MES-1	0.968	0.984	0.989	0.971	0.683	1.02	–	0.714	1	0.896	1.03	0.912	0.827
NCI-H1299	1.01	0.998	1.02	1.01	0.919	1.05	1.01	–	1.01	0.963	1.05	1.01	1.02
NCI-H1355	1.03	0.957	0.967	0.976	0.883	0.961	0.921	0.75	0.997	0.892	1.01	1.02	0.957
ChaGo-K-1	0.923	0.965	1.02	1.06	0.787	0.98	0.878	0.843	1.01	1.01	1.01	0.998	0.984
NCI-H2126	1.04	0.957	1.03	0.94	0.81	0.991	0.959	0.684	0.96	0.91	0.965	0.906	0.903
NCI-H520	0.997	0.914	0.982	1.02	0.686	0.969	0.986	0.767	0.995	0.986	0.925	0.95	0.938
NCI-H1755	0.998	0.987	1.02	1.04	0.98	1.04	1.04	0.892	1.02	0.952	0.975	0.973	0.96
NCI-H358	1.04	0.873	0.91	0.804	0.63	0.898	0.791	0.289	0.918	0.86	0.877	0.731	0.568
NCI-H1650	0.895	0.764	0.818	0.799	0.587	0.782	0.745	0.45	0.997	0.736	0.843	0.855	0.705
NCI-H2228	1.02	1.23	0.946	1.09	1.07	0.632	0.36	0.29	1.04	0.983	0.836	1.12	0.809
NCI-H2347	1.1	1.04	1.07	1.11	0.972	0.964	0.932	0.986	1.03	0.785	1.03	1.06	0.988
HCC-15	0.969	0.989	1.01	1.11	0.897	0.913	0.973	0.808	1.01	0.919	0.982	1	1.03
NCI-H23	1.13	1	1.1	1.11	0.922	0.989	0.796	0.538	1.09	0.975	0.894	0.926	0.901
LC-2-ad	1.01	0.989	1.03	0.963	0.758	0.975	0.848	0.654	1.02	0.893	1.01	0.868	0.438
LCLC-97TM1	1.05	0.917	1.06	1.02	0.832	0.897	0.735	0.471	1.05	0.939	1.01	1.05	0.832
HOP-62	0.971	1.07	1.06	1	0.941	–	1	1.04	0.947	1.02	1.01	1.02	1.04
NCI-H2085	1.01	1.03	1.02	0.981	0.893	0.986	–	0.914	1.04	0.99	0.99	1.01	0.931
NCI-H2087	1.24	1.06	0.95	1.1	0.884	1.09	–	0.989	0.934	0.938	1.02	1.15	1.14
NCI-H1395	1.05	0.883	0.952	0.974	0.648	1.01	0.777	0.977	0.909	0.954	0.856	0.938	0.795
